# Source: patent publication US9241947B2, “Boronic acid derivatives and therapeutic uses thereof” (priority 2013, dated 2016)
# Like-named read-outs stand apart in the source and are kept apart here.
# Tests used:
# [1] = tested on: KP1081 (NDM-1, TEM-1, SHV-11, CMY-6, CTX-M-15); assay: Carbapenem potentiation against clinical isolate; type: cell-based; details: Klebsiella pneumoniae, strain KP1081
# Text: (§1) The results are present in Table 6.
# (§2) The results are present in Table 7.
# ECM6711 pUCP24-VIM-1 = type: cell-based, E. coli; details: Compound 1 at fixed 4 μg/ml or 8 μg/ml; VIM-1 producing strain
# NDM-1 [2] = target: T1, NDM-1 (Klebsiella pneumoniae, UniProt C7C422); type: biochemical
# T1 sequence (C7C422 29-270 limits assumed): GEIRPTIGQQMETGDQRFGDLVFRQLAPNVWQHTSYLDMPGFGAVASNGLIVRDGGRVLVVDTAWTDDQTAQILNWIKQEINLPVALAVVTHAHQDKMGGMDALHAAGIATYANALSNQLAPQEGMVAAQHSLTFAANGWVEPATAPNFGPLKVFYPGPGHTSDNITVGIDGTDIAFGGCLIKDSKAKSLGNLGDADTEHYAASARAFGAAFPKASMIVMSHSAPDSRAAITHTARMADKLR
# VIM-1 = target: T2, VIM-1 (Pseudomonas aeruginosa, UniProt A0A0F7KYQ8); type: biochemical; details: cleavage of nitrocefin (200 uM) by VIM-1 supernatant
# T2 construct: made in house; host or cells: ECM6711 strain carrying pUCP24-VIM-1 plasmid (culture supernatant, not purified)
# NDM-1 [3] = target: T1, NDM-1; type: biochemical; details: read-out: Ki NDM-1, Imipenem
# [4] = tested on: clinical isolates expressing class A, B and D carbapenemases; assay: Carbapenem potentiation against panel of clinical isolates; type: cell-based; details: Compound 1 at fixed 5 μg/ml; biapenem, doripenem, imipenem, meropenem; all the strains
# Text: as §1
# ECM6703 pUCP24-NDM-1 = type: cell-based, E. coli; details: Compound 1 at fixed 4 μg/ml or 8 μg/ml; NDM-1 producing strain
# OXA-48 = OXA-48 (Klebsiella pneumoniae, UniProt Q6XEC0); assay: Inhibition of purified class D carbapenemase, biapenem substrate; type: biochemical; details: purified enzyme
# OXA-48, sequence (Q6XEC0 23-265 limits assumed): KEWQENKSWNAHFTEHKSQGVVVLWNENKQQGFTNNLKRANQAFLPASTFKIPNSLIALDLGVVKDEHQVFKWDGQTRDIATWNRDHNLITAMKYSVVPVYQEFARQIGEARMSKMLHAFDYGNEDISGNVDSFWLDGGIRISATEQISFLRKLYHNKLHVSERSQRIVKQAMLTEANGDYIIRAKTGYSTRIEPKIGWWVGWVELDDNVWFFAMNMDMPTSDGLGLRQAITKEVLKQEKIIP
# SHV-12 = SHV-12 (Klebsiella pneumoniae, UniProt P0AD64, E235K/G234S/L31Q); assay: Inhibition of nitrocefin cleavage by purified enzyme; type: biochemical; details: nitrocefin substrate; read-out: Ki (SHV-12, NCF)
# SHV-12, sequence (P0AD64 22-286 L31Q/G234S/E235K): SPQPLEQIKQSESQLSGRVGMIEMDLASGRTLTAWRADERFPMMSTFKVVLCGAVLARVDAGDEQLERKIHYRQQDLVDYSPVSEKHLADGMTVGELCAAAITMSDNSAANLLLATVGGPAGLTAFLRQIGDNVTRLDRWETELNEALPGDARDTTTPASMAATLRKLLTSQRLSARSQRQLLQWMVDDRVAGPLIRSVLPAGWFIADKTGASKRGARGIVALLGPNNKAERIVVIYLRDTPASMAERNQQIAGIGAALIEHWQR
# Experimental: Purified enzymes were mixed with various concentrations of inhibitors in reaction buffer and incubated for 10 min at room temperature. Nitrocefin was added and substrate cleavage profiles were recorded at 490 nm every 10 sec for 10 min.
# EA1019 (SHV-5, VIM-1) = assay: Carbapenem potentiation against clinical isolate; type: cell-based, Enterobacter aerogenes; details: Klebsiella aerogenes; strain EA1019; read-out: Doripenem MIC Alone
# Text: as §1, §2
# [5] = tested on: KP1086 (TEM, SHV, CTX-M-15, OXA-48); assay: Carbapenem potentiation against clinical isolate; type: cell-based; details: Klebsiella pneumoniae, strain KP1086
# Text: as §1, §2
# [6] = tested on: KP1074 (KPC-3, SHV-11, TEM); assay: Carbapenem potentiation against clinical isolate; type: cell-based; details: Klebsiella pneumoniae, strain KP1074
# Text: as §1, §2
# KP1054 (VIM-1, SHV-11) = assay: Carbapenem potentiation against clinical isolate; type: cell-based; details: Klebsiella pneumoniae, strain KP1054
# Text: as §1, §2
# AB1144 (NDM-1) = assay: Carbapenem potentiation against clinical isolate; type: cell-based; details: Acinetobacter baumannii
# Text: as §1, §2
# [7] = tested on: EC1064 (NDM-1, CMY-6, CTX-M-15); assay: Carbapenem potentiation against clinical isolate; type: cell-based; details: Escherichia coli, strain EC1064
# Text: as §1, §2
# [8] = tested on: KP1087 (KPC-2, CTX-M-15, SHV-11, TEM-1); assay: Carbapenem potentiation against clinical isolate; type: cell-based; details: Klebsiella pneumoniae, strain KP1087
# Text: as §1, §2
# [9] = tested on: KP1064 (KPC-2, SHV-11, TEM-1); assay: Carbapenem potentiation against clinical isolate; type: cell-based; details: Klebsiella pneumoniae, strain KP1064
# Text: as §1, §2
# KP1014 (VIM-1) = assay: Carbapenem potentiation against clinical isolate; type: cell-based; details: Klebsiella pneumoniae, strain KP1014
# Text: as §1, §2
# [10] = tested on: KP1004 (KPC-2, TEM-1, SHV-11); assay: Carbapenem potentiation against clinical isolate; type: cell-based; details: Klebsiella pneumoniae, strain KP1004
# Text: as §1, §2
# [11] = tested on: KP1084 (KPC-3, SHV-11, TEM-1); assay: Carbapenem potentiation against clinical isolate; type: cell-based; details: Klebsiella pneumoniae, strain KP1084
# Text: as §1, §2
# [12] = cleavage of biapenem (100 uM) by NDM-1, read-out: Ki, Biapenem
# [13] = cleavage of tebipenem (100 uM) by NDM-1, read-out: Ki, Tebipenem
compound,measurement,setting,value
C[C@@H](O)[C@H]1C(=O)N2C(C(=O)[O-])=C(SC3Cn4cnc[n+]4C3)[C@H](C)[C@H]12 (stereo partly drawn) [Biapenem],MIC,[1]; read-out: Biapenem MIC Alone,> 10 µg/mL
"O=C(O)c1cccc2c1OB(O)[C@@H](Sc1nncs1)C2 [Compound 1, (R)-3-(1,3,4-thiadiazol-2-ylthio)-2-hydroxy-3,4-dihydro-2H-benzo[e][1,2]oxaborinine-8-carboxylic acid]",imipenem MIC in the presence of Compound 1,ECM6711 pUCP24-VIM-1,decreased to the level of the strain containing empty vector
same,Ki,NDM-1 [2]; [12],0.01 to 0.1 µM
same,Ki,NDM-1 [2]; [13],> 0.1 µM
same,Ki,"NDM-1 [2]; read-out: Ki, Imipenem",0.01 to 0.1 µM
same,IC50,VIM-1,< 1 µM
same,Ki,NDM-1 [3],0.01 to 0.1 µM
same,carbapenem MIC in the presence of Compound 1,[4],significantly reduced
same,imipenem MIC in the presence of Compound 1,ECM6703 pUCP24-NDM-1,decreased to the level of the strain containing empty vector
"O=C(O)c1cccc2c1OB(O)[C@@H](Sc1nnc[nH]1)C2 [Compound 2, (R)-3-(4H-1,2,4-triazol-3-ylthio)-2-hydroxy-3,4-dihydro-2H-benzo[e][1,2]oxaborinine-8-carboxylic acid]",Ki,NDM-1 [2]; [13],0.01 to 0.1 µM
same,Ki,"NDM-1 [2]; read-out: Ki, Imipenem",< 0.01 µM
same,IC50,VIM-1,< 1 µM
same,Ki,NDM-1 [3],< 0.01 µM
same,Ki,OXA-48,0.01 to 0.1 µM
same,Ki,SHV-12,< 0.1 µM
"NC(=O)CS[C@H]1Cc2cccc(C(=O)O)c2OB1O [Compound 3, (R)-3-(2-amino-2-oxoethylthio)-2-hydroxy-3,4-dihydro-2H-benzo[e][1,2]oxaborinine-8-carboxylic acid]",Ki,NDM-1 [2]; [12],> 0.1 µM
same,Ki,NDM-1 [2]; [13],> 0.1 µM
same,Ki,"NDM-1 [2]; read-out: Ki, Imipenem",> 0.1 µM
same,Ki,NDM-1 [3],> 0.1 µM
same,Ki,OXA-48,< 0.01 µM
same,Ki,SHV-12,0.1 to 1 µM
"Nc1nnc(S[C@H]2Cc3cccc(C(=O)O)c3OB2O)s1 [Compound 4, (R)-3-(5-amino-1,3,4-thiadiazol-2-ylthio)-2-hydroxy-3,4-dihydro-2H-benzo[e][1,2]oxaborinine-8-carboxylic acid]",Ki,NDM-1 [2]; [12],< 0.01 µM
same,Ki,NDM-1 [2]; [13],< 0.01 µM
same,Ki,"NDM-1 [2]; read-out: Ki, Imipenem",< 0.01 µM
same,IC50,VIM-1,< 1 µM
same,Ki,NDM-1 [3],< 0.01 µM
same,Ki,OXA-48,< 0.01 µM
same,Ki,SHV-12,< 0.1 µM
"Cn1nnnc1S[C@H]1Cc2cccc(C(=O)O)c2OB1O [Compound 5, (R)-2-hydroxy-3-(1-1H-tetrazol-5-ylthio)-3,4-dihydro-2H-benzo[e][1,2]oxaborinine-8-carboxylic acid]",Ki,"NDM-1 [2]; read-out: Ki, Imipenem",0.01 to 0.1 µM
same,IC50,VIM-1,≥ 1 µM
same,Ki,NDM-1 [3],0.01 to 0.1 µM
"O=C(O)c1cccc2c1OB(O)[C@@H](Sc1ccccc1)C2 [Compound 6, (R)-2-hydroxy-3-(phenylthio)-3,4-dihydro-2H-benzo[e][1,2]oxaborinine-8-carboxylic acid]",Ki,"NDM-1 [2]; read-out: Ki, Imipenem",< 0.01 µM
same,IC50,VIM-1,< 1 µM
same,Ki,NDM-1 [3],< 0.01 µM
"CC(=O)Nc1nnc(S[C@H]2Cc3cccc(C(=O)O)c3OB2O)s1 [Compound 7, (R)-3-(5-acetamido-1,3,4-thiadiazol-2-ylthio)-2-hydroxy-3,4-dihydro-2H-benzo[e][1,2]oxaborinine-8-carboxylic acid]",Ki,"NDM-1 [2]; read-out: Ki, Imipenem",0.01 to 0.1 µM
same,IC50,VIM-1,< 1 µM
same,Ki,NDM-1 [3],0.01 to 0.1 µM
same,Ki,OXA-48,< 0.01 µM
same,Ki,SHV-12,< 0.1 µM
"O=C(O)c1cccc2c1OB(O)[C@@H](Sc1cccnc1)C2 [Compound 8, (R)-2-hydroxy-3-(pyridin-3-ylthio)-3,4-dihydro-2H-benzo[e][1,2]oxaborinine-8-carboxylic acid]",Ki,"NDM-1 [2]; read-out: Ki, Imipenem",> 0.1 µM
same,IC50,VIM-1,< 1 µM
same,Ki,NDM-1 [3],> 0.1 µM
"NC(=O)CCS[C@H]1Cc2cccc(C(=O)O)c2OB1O [Compound 9, (R)-3-(3-amino-3-oxopropylthio)-2-hydroxy-3,4-dihydro-2H-benzo[e][1,2]oxaborinine-8-carboxylic acid]",Ki,"NDM-1 [2]; read-out: Ki, Imipenem",> 0.1 µM
same,IC50,VIM-1,< 1 µM
same,Ki,NDM-1 [3],> 0.1 µM
same,Ki,OXA-48,0.01 to 0.1 µM
same,Ki,SHV-12,0.1 to 1 µM
"CC(=N)S[C@H]1Cc2cccc(C(=O)O)c2OB1O [Compound 10, (R)-2-hydroxy-3-(1-iminoethylthio)-3,4-dihydro-2H-benzo[e][1,2]oxaborinine-8-carboxylic acid]",Ki,"NDM-1 [2]; read-out: Ki, Imipenem",0.01 to 0.1 µM
same,IC50,VIM-1,≥ 1 µM
same,Ki,NDM-1 [3],0.01 to 0.1 µM
"O=C(O)c1cccc2c1OB(O)[C@@H](Sc1nccs1)C2 [Compound 11, (R)-2-hydroxy-3-(thiazol-2-ylthio)-3,4-dihydro-2H-benzo[e][1,2]oxaborinine-8-carboxylic acid]",Ki,"NDM-1 [2]; read-out: Ki, Imipenem",> 0.1 µM
same,IC50,VIM-1,≥ 1 µM
same,Ki,NDM-1 [3],> 0.1 µM
same,Ki,SHV-12,< 0.1 µM
"O=C(O)c1cccc2c1OB(O)[C@@H](Sc1c[nH]nn1)C2 [Compound 12, (R)-3-(1H-1,2,3-triazol-4-ylthio)-2-hydroxy-3,4-dihydro-2H-benzo[e][1,2]oxaborinine-8-carboxylic acid]",Ki,"NDM-1 [2]; read-out: Ki, Imipenem",0.01 to 0.1 µM
same,IC50,VIM-1,< 1 µM
same,Ki,NDM-1 [3],0.01 to 0.1 µM
"O=C(O)c1cccc2c1OB(O)[C@@H](OCc1ccccc1)C2 [Compound 13, (R)-3-(benzyloxy)-2-hydroxy-3,4-dihydro-2H-benzo[e][1,2]oxaborinine-8-carboxylic acid]",Ki,"NDM-1 [2]; read-out: Ki, Imipenem",0.01 to 0.1 µM
same,IC50,VIM-1,< 1 µM
same,Ki,NDM-1 [3],0.01 to 0.1 µM
"Nn1cnnc1S[C@H]1Cc2cccc(C(=O)O)c2OB1O [Compound 14, (R)-3-(4-amino-4H-1,2,4-triazol-3-ylthio)-2-hydroxy-3,4-dihydro-2H-benzo[e][1,2]oxaborinine-8-carboxylic acid]",IC50,VIM-1,< 1 µM
same,Ki,SHV-12,< 0.1 µM
C[C@@H](O)[C@H]1C(=O)N2C(C(=O)O)=C(S[C@@H]3CN[C@H](CNS(N)(=O)=O)C3)[C@H](C)[C@H]12 [Doripenem],MIC,"EA1019 (SHV-5, VIM-1)",> 10 µg/mL
same,MIC,[5]; read-out: Doripenem MIC Alone,> 10 µg/mL
same,MIC,[6]; read-out: Doripenem MIC Alone,> 10 µg/mL
same,MIC,"KP1054 (VIM-1, SHV-11); read-out: Doripenem MIC Alone",> 10 µg/mL
same,MIC,"AB1144 (NDM-1); strain AB1144, read-out: Doripenem MIC Alone",> 10 µg/mL
same,MIC,[1]; read-out: Doripenem MIC Alone,> 10 µg/mL
same,MIC,[7]; read-out: Doripenem MIC Alone,> 10 µg/mL
same,MIC,[8]; read-out: Doripenem MIC Alone,> 10 µg/mL
same,MIC,[9]; read-out: Doripenem MIC Alone,> 10 µg/mL
same,MIC,KP1014 (VIM-1); read-out: Doripenem MIC Alone,> 10 µg/mL
same,MIC,[10]; read-out: Doripenem MIC Alone,1 to 10 µg/mL
same,MIC,[11]; read-out: Doripenem MIC Alone,> 10 µg/mL
C[C@@H](O)[C@H]1C(=O)N2C(C(=O)O)=C(SCCN=CN)C[C@H]12 [Imipenem],MIC,[5]; read-out: Imipenem MIC Alone,> 10 µg/mL
same,MIC,[6]; read-out: Imipenem MIC Alone,> 10 µg/mL
same,MIC,"KP1054 (VIM-1, SHV-11); read-out: Imipenem MIC Alone",1 to 10 µg/mL
same,MIC,AB1144 (NDM-1); read-out: Imipenem MIC Alone,> 10 µg/mL
same,MIC,[1]; read-out: Imipenem MIC Alone,> 10 µg/mL
same,MIC,[7]; read-out: Imipenem MIC Alone,> 10 µg/mL
same,MIC,[8]; read-out: Imipenem MIC Alone,1 to 10 µg/mL
same,MIC,[9]; read-out: Imipenem MIC Alone,> 10 µg/mL
same,MIC,KP1014 (VIM-1); read-out: Imipenem MIC Alone,> 10 µg/mL
same,MIC,[10]; read-out: Imipenem MIC Alone,> 10 µg/mL
same,MIC,[11]; read-out: Imipenem MIC Alone,> 10 µg/mL
C[C@@H](O)[C@H]1C(=O)N2C(C(=O)O)=C(S[C@@H]3CN[C@H](C(=O)N(C)C)C3)[C@H](C)[C@H]12 [Meropenem],MIC,[5]; read-out: Meropenem MIC Alone,> 10 µg/mL
same,MIC,[6]; read-out: Meropenem MIC Alone,> 10 µg/mL
same,MIC,"KP1054 (VIM-1, SHV-11); read-out: Meropenem MIC Alone",> 10 µg/mL
same,MIC,"AB1144 (NDM-1); strain AB1144, read-out: Meropenem MIC Alone",> 10 µg/mL
same,MIC,[1]; read-out: Meropenem MIC Alone,> 10 µg/mL
same,MIC,[7]; read-out: Meropenem MIC Alone,> 10 µg/mL
same,MIC,[8]; read-out: Meropenem MIC Alone,> 10 µg/mL
same,MIC,[9]; read-out: Meropenem MIC Alone,> 10 µg/mL
same,MIC,KP1014 (VIM-1); read-out: Meropenem MIC Alone,1 to 10 µg/mL
same,MIC,[10]; read-out: Meropenem MIC Alone,1 to 10 µg/mL
same,MIC,[11]; read-out: Meropenem MIC Alone,> 10 µg/mL
